Test results reported in PubChem BioAssay (NCI).
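Exposure lasted 48 hours, with cells grown in 96-well plates and compounds tested at five concentrations. At the GI50, growth is halved. TGI marks complete inhibition of growth.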

Columns and labels:
Assay in all cases: NCI anticancer screen, dose series, 48 h
HL-60(TB) leukemia = tested on: HL-60(TB) leukemia
LOX IMVI melanoma = tested on: LOX IMVI melanoma
NCI-H460 lung = tested on: NCI-H460 lung
SK-MEL-5 melanoma = tested on: SK-MEL-5 melanoma
SK-OV-3 ovarian = tested on: SK-OV-3 ovarian
U251 CNS = tested on: U251 CNS
UACC-62 melanoma = tested on: UACC-62 melanoma
UO-31 renal = tested on: UO-31 renal
MCF7 breast = tested on: MCF7 breast
NCI/ADR-RES ovarian = tested on: NCI/ADR-RES ovarian

| Compound | TGI (HL-60(TB) leukemia) | TGI (LOX IMVI melanoma) | TGI (NCI-H460 lung) | TGI (SK-MEL-5 melanoma) | TGI (SK-OV-3 ovarian) | TGI (U251 CNS) | TGI (UACC-62 melanoma) | TGI (UO-31 renal) | GI50 (HL-60(TB) leukemia) | GI50 (MCF7 breast) | TGI (MCF7 breast) | GI50 (NCI-H460 lung) | GI50 (NCI/ADR-RES ovarian) | TGI (NCI/ADR-RES ovarian) | GI50 (SK-MEL-5 melanoma) | GI50 (SK-OV-3 ovarian) | GI50 (U251 CNS) | GI50 (UACC-62 melanoma) | GI50 (UO-31 renal) | GI50 (LOX IMVI melanoma) |
| --- | --- | --- | --- | --- | --- | --- | --- | --- | --- | --- | --- | --- | --- | --- | --- | --- | --- | --- | --- | --- |
| CC(=O)O[C@H]1C=CC23OC(=O)[C@]1(C)[C@H]2[C@H](C(=O)O)C12CC(=O)[C@@](CO)(CC[C@H]13)C2 | > 100 µM | > 100 µM | > 100 µM | > 100 µM | > 100 µM | > 100 µM | > 100 µM | > 100 µM |  |  |  |  |  |  |  |  |  |  |  |  |
| CC(C)(C)OC(=O)N1N=NC2C3OC(CC3=O)C21 (stereo not given) |  | > 100 µM | > 100 µM |  | > 100 µM | > 100 µM | > 100 µM | > 100 µM |  |  |  |  |  |  |  |  |  |  |  |  |
| NC(=O)N/N=C(/c1nc2ccc([N+](=O)[O-])cc2[nH]c1=O)C(O)c1ccco1 (stereo not given) | > 100 µM | > 100 µM | > 100 µM | > 100 µM | > 100 µM | > 100 µM | > 100 µM | > 100 µM |  |  |  |  |  |  |  |  |  |  |  |  |
| CC(=O)n1ccc2c(Cl)ncnc21 | > 100 µM | > 100 µM | > 100 µM | > 100 µM | > 100 µM | > 100 µM | > 100 µM | > 100 µM |  |  |  |  |  |  |  |  |  |  |  |  |
| O=C(CC(=O)c1ccccc1)c1ccccc1 | > 100 µM |  | 40 µM | 32.4 µM | > 100 µM | 8.05 µM | 77.5 µM | > 100 µM | 12.3 µM | 10.1 µM | 82.3 µM | 7.94 µM | 16.8 µM | 44 µM | 11.5 µM | 22.2 µM | 2.15 µM | 21.7 µM | 36.5 µM |  |
| CC(C)N(C(C)C)P(OCCC#N)OC1CC(n2cnc3c(=O)[nH]cnc32)OC1COC(=O)NCCCCCCNC(=O)OC(C)(C)c1ccc(-c2ccccc2)cc1 (stereo not given) | 36.4 µM | 32.7 µM | 65 µM | 40.9 µM | > 100 µM | 43 µM | 35.3 µM | 31.3 µM |  |  |  |  |  |  |  |  |  |  |  |  |
| O=C1NC2(C=Cc3c(ccc4ccccc34)O2)Oc2ccccc21 (stereo not given) | 27.4 µM | 39.9 µM | > 100 µM | 29.5 µM |  | 62.5 µM | > 100 µM | 9.41 µM |  |  |  |  |  |  |  |  |  |  |  |  |
| Cc1ccc(NC(=O)CCC(=O)C(C#N)c2ccccc2)cc1C (stereo not given) | > 100 µM | > 100 µM | > 100 µM | > 100 µM | > 100 µM | > 100 µM | > 100 µM | > 100 µM |  |  |  |  |  |  |  |  |  |  |  |  |
| CCOC(=O)NC(=O)c1c[nH]c(=O)[nH]c1=O | > 100 µM | > 100 µM | > 100 µM | > 100 µM | > 100 µM | > 100 µM | > 100 µM | > 100 µM |  |  |  |  |  |  |  |  |  |  |  |  |
| CCOC(=O)/C(C#N)=C/Nc1ccc(-c2nc3ccccc3[nH]2)cc1 | 97.3 µM | 41.5 µM | > 100 µM | > 100 µM | 99.3 µM | 65.9 µM | 62.4 µM | > 100 µM | 40.5 µM |  |  | 24.8 µM | 41.4 µM | 66.1 µM | 28.5 µM | 25.6 µM | 23.2 µM | 18.7 µM | 21.1 µM | 19.4 µM |
| C[n+]1c(N)n(C(=O)OCc2ccccc2)c(=O)c2c1ncn2C(=O)OCc1ccccc1 | > 100 µM | > 100 µM | > 100 µM | > 100 µM | > 100 µM | > 100 µM | > 100 µM | 62.9 µM |  |  |  |  |  |  |  |  |  |  |  |  |
| C#Cc1cc2c(N)c(C(=O)c3cc(OC)c(OC)c(OC)c3)[nH]c2cc1OC |  | > 100 µM | > 100 µM | 12.9 µM | > 100 µM | > 100 µM | > 100 µM | 56.1 µM |  | 0.325 µM | > 100 µM | 0.408 µM |  |  | 0.434 µM | 0.517 µM | 0.691 µM | 2.77 µM | 0.722 µM | 0.656 µM |
| COC(=O)C1C2CC3C(OC(=O)C31)C2OC(=O)[C@](OC)(c1ccccc1)C(F)(F)F (stereo not given in full) | > 100 µM | > 100 µM | > 100 µM | > 100 µM | > 100 µM | > 100 µM |  | > 100 µM |  |  |  |  |  |  |  |  |  |  |  |  |
| CO[C@H](C(=O)O)[C@@H]1Cc2cc3cc(OC4CC(OC5CC(O)C(O)C(C)O5)C(O)C(C)O4)c(C)c(O)c3c(O)c2C(=O)[C@H]1OC1CC(OC2CC(OC3CC(C)(O)C(O)C(C)O3)C(O)C(C)O2)C(O)C(C)O1 (stereo not given in full) | > 32.5 µM | 1.48 µM | > 32.5 µM | 0.868 µM | > 32.5 µM | > 32.5 µM | 0.496 µM | 5.33 µM | 1.06 µM |  |  | 0.131 µM | 10.1 µM | > 32.5 µM | 0.159 µM | 0.445 µM | 0.212 µM | 0.108 µM | 0.637 µM | 0.114 µM |
| N#Cc1cccc(OCc2ccccc2COc2cccc(C#N)c2)c1 |  |  | > 100 µM | > 100 µM | > 100 µM | 43.4 µM | 73 µM | > 100 µM |  | 50.3 µM | > 100 µM | 40.8 µM | 50.1 µM | > 100 µM | 43.4 µM | 35.7 µM | 19.4 µM | 18.3 µM | 51.3 µM |  |
| CCCCOc1ccc(/C=N/Nc2cc(C)nc3ccc(Cl)cc23)cc1 | 3.65 µM | 3.09 µM |  | 2.97 µM | 3.27 µM | 3.19 µM | 3.02 µM | 2.93 µM | 1.76 µM | 1.65 µM | 3.37 µM |  | 1.73 µM | 3.36 µM | 1.61 µM | 1.8 µM | 1.72 µM | 1.61 µM | 1.56 µM | 1.69 µM |
| COC(=O)Cc1nc2ccccc2o1 | 41.4 µM |  | > 100 µM | > 100 µM | > 100 µM | > 100 µM | 49.3 µM | > 100 µM |  |  |  |  |  |  |  |  |  |  |  |  |
| COc1ccc(/C=N/N=C(\[O-])c2ccncc2)cc1F.COc1ccc(/C=N\N=C(/[O-])c2ccncc2)cc1F.[Cu+2] |  | > 100 µM | 26.5 µM | 80.4 µM | 24.1 µM | 35.8 µM | 52.8 µM | > 100 µM |  | 17.9 µM | 35 µM | 13.6 µM | 13.4 µM | 28.8 µM | 26 µM | 11.8 µM | 19.4 µM | 23.8 µM | 64.4 µM | 68.8 µM |
